Experimental findings from article PMC7105723, “A Ganoderma-Derived Compound Exerts Inhibitory Effect Through Formyl Peptide Receptor 2” (Frontiers in Pharmacology, 2020) are described below.

SMILES strings stand for the structures.

For orientation: IC50 means the point on the concentration scale where inhibition reaches its midpoint.

This assay concerns the target T1, formyl peptide receptor 2 (FPR2) (Homo sapiens, UniProt P25090).
T1 construct: human FPR2 stably expressed in RBL-2H3 cells; FPR2-ICL3-FlAsH/C-terminal ECFP in HEK-293 cells for FRET
T1 sequence (P25090 1-351): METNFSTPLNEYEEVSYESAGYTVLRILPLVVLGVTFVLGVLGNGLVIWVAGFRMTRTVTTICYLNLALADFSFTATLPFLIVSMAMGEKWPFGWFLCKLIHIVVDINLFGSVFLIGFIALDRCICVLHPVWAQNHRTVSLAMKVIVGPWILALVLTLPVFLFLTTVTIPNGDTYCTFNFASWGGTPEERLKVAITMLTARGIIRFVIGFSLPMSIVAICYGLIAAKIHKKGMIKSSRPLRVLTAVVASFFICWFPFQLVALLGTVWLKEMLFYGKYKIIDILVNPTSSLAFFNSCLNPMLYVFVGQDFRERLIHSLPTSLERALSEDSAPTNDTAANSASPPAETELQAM
The experiment in a line: competition with WK(FITC)YMVm on RBL-FPR2 cells by flow cytometry (partial); FlAsH FRET conformational change. Type of assay: cell-based. On the technique in general: A flow cytometer gives signals particle by particle.

`CC(C)=CCC/C(C)=C/CC/C(=C/Cc1cc(O)ccc1O)CO` [C18, ganomycin F] gave a 50% inhibitory concentration (IC50) of 3.2 µM.
